The source made the active and inactive calls. The calls are words filed in the database; no cut-off is given here.
How the values were obtained:
B16-F10 [1] = test: Antitumor activity against mouse B16-F10 cells implanted in male C57BL/6 mouse model assessed as tumor growth inhibition at 20 mg/kg, po administered once daily via gavage for 14 days relative to control; type: functional; details: B16-F10, 336 h, time 14 day, read-out: TGI
Mus musculus [2] = test: Immunomodulatory activity in male C57BL/6 mouse model implanted with mouse B16-F10 cells assessed as increase in CD3+ CD8+ T cells in tumor at 20 mg/kg, po administered once daily for 14 days by flow cytometric analysis (reference value: 3.2 %); type: functional; details: time 14 day
[3] = target: T1, Histone deacetylase 3 (Mus musculus) (UniProt O88895); test: In vivo inhibition of HDAC3 in male C57BL/6 mouse model implanted with mouse B16-F10 cells assessed as increase in acetylated histone H3 level in tumor at 20 mg/kg, po administered once daily via gavage for 14 days by DAPI staining based immunofluorescence analysis; type: functional, organism-based; details: time 14.0 day
T1 sequence (whole entry): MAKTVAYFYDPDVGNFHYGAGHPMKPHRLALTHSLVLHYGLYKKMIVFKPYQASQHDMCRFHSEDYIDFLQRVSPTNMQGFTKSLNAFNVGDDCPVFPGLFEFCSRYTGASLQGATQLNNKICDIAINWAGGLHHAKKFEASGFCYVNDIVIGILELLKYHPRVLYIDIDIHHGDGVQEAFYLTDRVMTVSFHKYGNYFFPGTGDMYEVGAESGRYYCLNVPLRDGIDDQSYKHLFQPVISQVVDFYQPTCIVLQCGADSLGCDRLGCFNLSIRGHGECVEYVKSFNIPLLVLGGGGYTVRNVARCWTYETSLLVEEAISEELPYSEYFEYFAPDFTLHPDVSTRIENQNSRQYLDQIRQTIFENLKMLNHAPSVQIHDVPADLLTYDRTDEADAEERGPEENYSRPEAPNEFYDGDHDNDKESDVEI

[4] = Oral bioavailability in male C57BL/6 mouse at 20 mg/kg; type: ADME, organism-based; details: in vivo
Mus musculus [5] = test: Immunomodulatory activity in male C57BL/6 mouse model implanted with mouse B16-F10 cells assessed as increase in CD3+ CD4+ T cells in tumor at 20 mg/kg, po administered once daily for 14 days by flow cytometric analysis (reference value: 3.1 %); type: functional; details: time 14 day
Mus musculus [6] = test: In vivo induction of PD-L1 degradation in male C57BL/6 mouse model implanted with mouse B16-F10 cells assessed as decrease in PD-L1 protein expression in tumor at 20 mg/kg, po administered once daily via gavage for 14 days by DAPI staining based immunofluorescence analysis; type: functional, organism-based; details: time 14.0 day
B16-F10 [7] = test: Downregulation of PARP1 expression in mouse B16-F10 cells at 2 uM incubated for 24 hrs by Western blot analysis; type: functional, cell-based
4T1 [8] = test: Antitumor activity against mouse 4T1 cells implanted in female BALB/c mouse model assessed as induction of DNA damage by measuring increase in gamma-H2AX expression in tumor administrated orally as once daily dose via gavage for 14 days by Western blot analysis; type: functional, cell-based; details: route po, time 14.0 day
4T1 [9] = test: Induction of DNA damage in mouse 4T1 cells assessed as increase in gamma-H2AX expression at 2 uM incubated for 24 hrs by Western blot analysis; type: functional, cell-based
[10] = Toxicity in female BALB/c mouse model implanted with mouse 4T1 cells assessed as effect on body weight administrated orally as once daily dose via gavage for 14 days; details: in vivo, po, 336 h, time 14 day
4T1 [11] = test: Antitumor activity against mouse 4T1 cells implanted in female BALB/c mouse model assessed as decrease in PAPR1 expression in tumor administrated orally as once daily dose via gavage for 14 days by Western blot analysis; type: functional, cell-based; details: route po, time 14.0 day
4T1 [12] = test: Antitumor activity against mouse 4T1 cells implanted in female BALB/c mouse model assessed as tumor growth inhibition administrated orally as once daily dose via gavage for 14 days relative to control; type: functional; details: route po; time 14 day
B16-F10 [13] = test: Induction of DNA damage in mouse B16-F10 cells assessed as increase in gamma-H2AX expression at 2 uM incubated for 24 hrs by Western blot analysis; type: functional, cell-based
4T1 [14] = test: Downregulation of PARP1 expression in mouse 4T1 cells at 2 uM incubated for 24 hrs by Western blot analysis; type: functional, cell-based

SMILES | inhibition in vivo at 20 mg/kg (B16-F10 [1]) | Activity (Mus musculus [2]) | inhibition [3] | bioavailability [4] | Activity (Mus musculus [5]) | Activity (Mus musculus [6]) | Activity (B16-F10 [7]) | Activity (4T1 [8]) | Activity (4T1 [9]) | Activity [10] | Activity (4T1 [11]) | TGI (4T1 [12]) | Activity (B16-F10 [13]) | Activity (4T1 [14])
Cc1c(COc2cc(OCc3cccc(C#N)c3)c(CNC(C)(C)C(=O)O)cc2Cl)cccc1-c1ccccc1 | 37% | 27% | inactive | < 5% | 27% | Active |  |  |  |  |  |  |  | 
O=C(c1cc(Cc2n[nH]c(=O)c3ccccc23)ccc1F)N1CCN(C(=O)C2CC2)CC1 [OLAPARIB] |  |  |  |  |  |  | Active | Active | Active | Non-toxic | Active | 36% | Active | Active
